Where two headings read alike, the source gives them in different places.
Experiments:
Nicotinic, human α3β4 = biological target: T1, Nicotinic, human α3β4 (Homo sapiens, UniProt P30926+P32297); assay: Competition binding, human α3β4 nicotinic receptor (CHO human α3β4 membranes)
T1 construct: host or cells: CHO
Procedure: (§1) CHO-human α3β4 cells (obtained from ChanTest, Cleveland, Ohio, catalog #CT6021) were maintained in proliferative growth phase in Ham's F12 (VWR) with 10% fetal bovine serum (Invitrogen), 0.25 mg/mL geneticin; 0.4 mg/ml zeocin. The amino acid sequences encoded by the transfected cDNA constructs used to generate the CHO-human α3β4 cells are identical to the translated sequences for GenBank accession numbers NM_000743.2 and NM_000750.3, respectively.
(§2) Cells were harvested in ice-cold PBS, pH 7.4, then homogenized with a Polytron (Kinematica GmbH, Switzerland). Homogenates were centrifuged at 40,000 g for 20 minutes (4° C.). The pellet was re-suspended in PBS and protein concentration determined using the Pierce BCA Protein Assay kit (Pierce Biotechnology, Rockford, Ill.).
(§3) Binding to nicotinic receptors was assayed on membranes using standard methods adapted from published procedures (Lippiello and Fernandes 1986; Davies et al., 1999). In brief, membranes were reconstituted from frozen stocks and incubated for 2 h on ice in 150 μl assay buffer (50 mM Tris, 154 mM NaCl, pH 7.4) in the presence of competitor compound (0.001 nM to 100 μM) and radioligand. [^3H]-nicotine (L-(−)-[N-methyl-^3H]-nicotine, 69.5 Ci/mmol, Perkin-Elmer Life Sciences, Waltham, Mass.) was used for human α4β2 binding studies. [^3H]-epibatidine (52 Ci/mmol, Perkin-Elmer Life Sciences) was used for binding studies at the other nicotinic receptor subtypes. Incubation was terminated by rapid filtration on a multimanifold tissue harvester (Brandel, Gaithersburg, Md.) using GF/B filters presoaked in 0.33% polyethyleneimine (w/v) to reduce non-specific binding. Filters were washed 3 times with ice-cold assay buffer and the retained radioactivity was determined by liquid scintillation counting.
(§4) Binding data were expressed as percent total control binding. Replicates for each point were averaged and plotted against the log of drug concentration. The IC50 (concentration of the compound that produces 50% inhibition of binding) was determined by least squares non-linear regression using GraphPad Prism software (GraphPAD, San Diego, Calif.). Ki was calculated using the Cheng-Prusoff equation (Cheng and Prusoff, 1973).

human α4β2 (LS) = human α4β2 (LS) (Homo sapiens, UniProt P17787+P43681); assay: Calcium flux inhibition, SH-EP1-human α4β2 maintained at 37° C. (LS); assay type: cell-based; conditions: for Emax: read-out: Human α4β2 Ca Flux Imax [37C/HS]
Procedure: (§5) SH-EP1-human α4β2 (Eaton et al., 2003), cell lines were obtained from Dr. Ron Lukas (Barrow Neurological Institute). Cells were maintained in proliferative growth phase in Dulbecco's modified Eagle's medium (Invitrogen, Carlsbad, Calif.) with 10% horse serum (Invitrogen), 5% fetal bovine serum (HyClone, Logan Utah), 1 mM sodium pyruvate, 4 mM L-glutamine. For maintenance of stable transfectants, the α4β2 cell media was supplemented with 0.25 mg/mL zeocin and 0.13 mg/mL hygromycin B.
Forty-eight hours prior to each experiment, cells were plated in 96 well black-walled, clear bottom plates (Corning, Corning, N.Y.) at 60-100,000 cells/well. On the day of the experiment, growth medium was gently removed, 200 μL 1×FLIPR Calcium 4 Assay reagent (Molecular Devices, Sunnyvale, Calif.) in assay buffer (20 mM HEPES, 7 mM TRIS base, 4 mM CaCl2, 5 mM D-glucose, 0.8 mM MgSO4, 5 mM KCl, 0.8 mM MgCl2, 120 mM N-methyl D-glucamine, 20 mM NaCl, pH 7.4 for SH-EP1-human α4β2 cells or 10 mM HEPES, 2.5 mM CaCl2, 5.6 mM D-glucose, 0.8 mM MgSO4, 5.3 mM KCl, 138 mM NaCl, pH 7.4 with TRIS-base for all other cell lines) was added to each well and plates were incubated at 37° C. for 1 hour (29° C. for the 29° C.-treated SH-EP1-human α4β2 cells). For inhibition studies, competitor compound (10 pM-10 μM) was added at the time of dye addition. The plates were removed from the incubator and allowed to equilibrate to room temperature. Plates were transferred to a FLIPR Tetra fluorometric imaging plate reader (Molecular Devices) for addition of compound and monitoring of fluorescence (excitation 485 nm, emission 525 nm). The amount of calcium flux was compared to both a positive (nicotine) and negative control (buffer alone). The positive control was defined as 100% response and the results of the test compounds were expressed as a percentage of the positive control. […] (LS), and 20 μM for SH-SY5Y cells or CHO_human α3β4.

human α4β2 (HS) = human α4β2 (HS) (Homo sapiens, UniProt P17787+P43681); assay: Calcium flux inhibition, SH-EP1-human α4β2 treated at 29° C. (HS); assay type: cell-based
Procedure: as §5
(§6) Forty-eight hours prior to each experiment, cells were plated in 96 well black-walled, clear bottom plates (Corning, Corning, N.Y.) at 60-100,000 cells/well. On the day of the experiment, growth medium was gently removed, 200 μL 1×FLIPR Calcium 4 Assay reagent (Molecular Devices, Sunnyvale, Calif.) in assay buffer (20 mM HEPES, 7 mM TRIS base, 4 mM CaCl2, 5 mM D-glucose, 0.8 mM MgSO4, 5 mM KCl, 0.8 mM MgCl2, 120 mM N-methyl D-glucamine, 20 mM NaCl, pH 7.4 for SH-EP1-human α4β2 cells or 10 mM HEPES, 2.5 mM CaCl2, 5.6 mM D-glucose, 0.8 mM MgSO4, 5.3 mM KCl, 138 mM NaCl, pH 7.4 with TRIS-base for all other cell lines) was added to each well and plates were incubated at 37° C. for 1 hour (29° C. for the 29° C.-treated SH-EP1-human α4β2 cells). For inhibition studies, competitor compound (10 pM-10 μM) was added at the time of dye addition. The plates were removed from the incubator and allowed to equilibrate to room temperature. Plates were transferred to a FLIPR Tetra fluorometric imaging plate reader (Molecular Devices) for addition of compound and monitoring of fluorescence (excitation 485 nm, emission 525 nm). The amount of calcium flux was compared to both a positive (nicotine) and negative control (buffer alone). The positive control was defined as 100% response and the results of the test compounds were expressed as a percentage of the positive control. For inhibition studies, the agonist nicotine was used at concentrations of 1 μM for SH-EP1-human α4β2 treated at 29° C. (HS), 10 μM for SH-EP1-human α4β2 maintained at 37° C. (LS), and 20 μM for SH-SY5Y cells or CHO_human α3β4.

human α3β4 = biological target: T2, human α3β4 (Homo sapiens, UniProt P30926+P32297); assay: Calcium flux inhibition, CHO-human α3β4 cells; assay type: cell-based
T2 construct: host or cells: CHO
Procedure: as §1, §6

Nicotinic, human α4β2 = Nicotinic, human α4β2 (Homo sapiens, UniProt P17787+P43681); assay: Competition binding, human α4β2 nicotinic receptor ([3H]nicotine)
Procedure: as §5, §2, §3, §4

[1] = biological target: T3, Human Ganglion (SH-SY5Y cells) (Homo sapiens, UniProt P30532+P30926+P32297); assay: Calcium flux inhibition, human ganglion (SH-SY5Y cells); assay type: cell-based
T3 construct: endogenous in cells; host or cells: SH-SY5Y human neuroblastoma cells
Procedure: as §6

Nicotinic, human α3β4α5 = biological target: T4, Nicotinic, human α3β4α5 (Homo sapiens, UniProt P30532+P30926+P32297); assay: Competition binding, human ganglion nicotinic receptor (SH-SY5Y membranes); conditions: SH-SY5Y cell membranes (α3β4α5), [3H]epibatidine 1 nM; read-out: Human Ganglion Ki
T4 construct: endogenous in cells; host or cells: SH-SY5Y human neuroblastoma cells
Procedure: as §2, §3, §4

[2] = 29° C.-treated cells (HS), nicotine 1 μM
[3] = SH-SY5Y cells, nicotine 20 μM, read-out: Human Ganglion Ca Flux IC50
[4] = CHO Human α3β4 membranes, [3H]epibatidine 1 nM, read-out: Human CHO α3β4 Ki
[5] = cells maintained at 37° C. (LS), nicotine 10 μM, read-out: Human α4β2 Ca Flux IC50 [37C/LS]
[6] = cells maintained at 37° C., nicotine 10 μM
[7] = 29° C.-treated cells (HS), nicotine 1 μM, read-out: Human α4β2 Ca Flux IC50 [29C/HS]
[8] = nicotine 20 μM, read-out: Human CHO α3β4 Ca Flux IC50
[9] = SH-EP1-Human α4β2 cell membranes, [3H]nicotine 2 nM, read-out: Human α4β2 Ki

Structure (SMILES) | Ki (Nicotinic, human α3β4) [nM] | IC50 (human α4β2 (LS)) [nM] | Emax (human α4β2 (LS)) [%] | IC50 (human α4β2 (HS)) [nM] | Human α4β2 Ca Flux Imax [29C/HS] (human α4β2 (HS); [2]) [% inh] | IC50 (human α3β4) [nM] | Human CHO α3β4 Ca Flux Imax (human α3β4; nicotine 20 μM) [% inh] | Ki (Nicotinic, human α4β2) [nM] | Human Ganglion Ca Flux Imax ([1]; SH-SY5Y cells, nicotine 20 μM) [% inh] | IC50 [1, 3] [nM] | Ki (Nicotinic, human α3β4; [4]) [nM] | IC50 (human α4β2 (LS); [5]) [nM] | Emax (human α4β2 (LS); [6]) [%] | IC50 (human α4β2 (HS); [7]) [nM] | IC50 (human α3β4; [8]) [nM] | Ki (Nicotinic, human α4β2; [9]) [nM] | IC50 [1] [nM] | Ki (Nicotinic, human α3β4α5) [nM]
CCC12CCCC1(NC)C1CCC2C1 (centres unmarked) | 75000 | 170 | 97 | 430 | 100 | 220 | 97 | 34000 | 98 | 20 | – | – | – | – | – | – | – | –
CN(C)[C@@]12CCC[C@@H]1[C@H]1CC[C@@H]2C1 | – | – | – | – | 96 | – | 96 | – | – | – | 13000 | 500 | 98 | 510 | 190 | 20000 | – | –
CC[C@]12CCC[C@@]1(N(C)C)[C@@H]1CC[C@H]2C1 | – | – | 99 | – | – | – | 96 | – | – | – | 70000 | 370 | – | – | 200 | 64000 | – | –
CN(C)[C@]12CCC[C@H]1[C@@H]1CC[C@H]2C1 | – | – | – | – | 99 | – | 97 | – | – | – | 16000 | 410 | 98 | 410 | 230 | 47000 | – | –
CCCCC12CCCC1(NC)C1CCC2C1 (centres unmarked) | – | – | 96 | – | 99 | – | 96 | – | 93 | – | 74000 | 140 | – | 460 | 300 | 73000 | 24 | –
[2H]C([2H])NC12CCCC1(C([2H])([2H])[2H])C1CCC2C1 (centres unmarked) | – | – | – | – | – | – | – | – | 99 | 83 | – | 76 | 95 | – | – | 26000 | – | –
CNC12CCCC1(CO)C1CCC2C1 (centres unmarked) | – | – | – | – | 99 | – | – | – | 91 | 200 | – | 380 | 90 | 370 | – | 31000 | – | 89000
CN[C@]12CCC[C@H]1[C@@H]1CC[C@H]2C1 | – | 340 | 96 | 550 | 96 | 490 | 97 | 33000 | 95 | 380 | – | – | – | – | – | – | – | –
C[N+](C)(C)[C@@]12CCC[C@@H]1[C@H]1CC[C@@H]2C1 | – | – | – | – | – | – | 94 | – | – | – | – | 260 | 98 | – | 940 | 6900 | – | –
C[N+](C)(C)[C@]12CCC[C@H]1[C@@H]1CC[C@H]2C1 | – | – | – | – | – | – | – | – | 97 | 1800 | 13000 | 380 | 100 | – | – | 8600 | – | –
CC[C@@]12CCC[C@]1(N(C)C)[C@H]1CC[C@@H]2C1 | – | – | 98 | – | – | – | 95 | – | – | – | 91000 | 710 | – | – | 240 | 33000 | – | –
CC[C@]12CCC[C@@]1(NC)[C@@H]1CC[C@H]2C1 | 53000 | 6900 | 94 | 510 | 100 | 120 | 97 | 32000 | – | – | – | – | – | – | – | – | – | –
